Where a name gives a salt, the structure may show the parent alone.
Molecular target: T1, human B1 (Homo sapiens, UniProt P46663)
T1 construct: host or cells: CHO-K1
T1 sequence (P46663 1-353): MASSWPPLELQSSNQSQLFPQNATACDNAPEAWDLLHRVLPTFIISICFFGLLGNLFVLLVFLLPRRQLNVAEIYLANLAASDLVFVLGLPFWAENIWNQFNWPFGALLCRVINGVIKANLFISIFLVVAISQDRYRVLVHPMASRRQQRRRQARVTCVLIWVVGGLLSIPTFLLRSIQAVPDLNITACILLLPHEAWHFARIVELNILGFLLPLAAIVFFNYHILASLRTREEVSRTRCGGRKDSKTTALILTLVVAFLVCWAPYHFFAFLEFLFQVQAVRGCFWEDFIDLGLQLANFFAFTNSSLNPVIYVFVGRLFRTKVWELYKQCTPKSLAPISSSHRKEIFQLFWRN
Assay: Calcium flux assay for Bradykinin B1 antagonist, CHO-K1 cell line expressing human B1
Assay type: cell-based
Conditions: CHO-K1 cells expressing human B1, agonist Lys-(Des-Arg)-Bradykinin, read-out: Potency (IC50 value against human B1)
Outline: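 CHO-K1 cells expressing human B1, loaded with 5 μM Fluo-4AM (2 h, 37° C) in HEPES buffer pH 7.4 with probenecid and 0.1% BSA, were preincubated 30 min at 25° C with compound (8 concentrations, triplicate, 1% DMSO) before B1 agonist addition. Ca2+ fluorescence monitored at 538 nm; background-normalized integrated values plotted against log antagonist concentration.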

Row | IC50 | Structure (SMILES)
1 | < 0.01 µM | COc1cc(C)c(S(=O)(=O)N(Cc2nc(C(=O)N(C)Cc3ccc(CN4CCC(OC)CC4)cc3)co2)C2CC2)c(C)c1 [Ex 183, 2-({Cyclopropyl[(4-methoxy-2,6-dimethylphenyl)sulfonyl]amino}methyl)-N-{4-[(4-methoxypiperidin-1-yl)methyl]benzyl}-N-methyl-1,3-oxazole-4-carboxamide]
2 | < 0.01 µM | COc1cc(C)c(S(=O)(=O)N(C)Cc2nc(C(=O)N(C)Cc3ccc(CN4CCC(O)CC4)cc3)co2)c(C)c1 [Ex 166, N-{4-[(4-Hydroxypiperidin-1-yl)methyl]benzyl}-2-({[(4-methoxy-2,6-dimethylphenyl)sulfonyl](methyl)amino}methyl)-N-methyl-1,3-oxazole-4-carboxamide]
3 | 0.01 to 0.1 µM | COc1cc(C)c(S(=O)(=O)N(Cc2nc(C(=O)N3CCC(O)(COCCN(C)C)CC3)co2)C2CC2)c(C)c1 [Ex 246, N-Cyclopropyl-N-({4-[(4-{[2-(dimethylamino)ethoxy]methyl}-4-hydroxypiperidin-1-yl)carbonyl]-1,3-oxazol-2-yl}methyl)-4-methoxy-2,6-dimethylbenzenesulfonamide trifluoroacetate]
4 | < 0.01 µM | COc1cc(C)c(S(=O)(=O)N(Cc2cc(C(=O)N3CCC(CCN4CCCC4)CC3)co2)C2CC2)c(C)c1 [Ex 120, N-Cyclopropyl-4-methoxy-2,6-dimethyl-N-[(4-{[4-(2-pyrrolidin-1-ylethyl)piperidin-1-yl]carbonyl}furan-2-yl)methyl]benzenesulfonamide trifluoroacetate]
5 | < 0.01 µM | COc1cc(C)c(S(=O)(=O)N(Cc2nc(C(=O)N(C)Cc3ccc(CN4CC(OC)C4)cc3)co2)C2CC2)c(C)c1 [Ex 187, 2-({Cyclopropyl[(4-methoxy-2,6-dimethylphenyl)sulfonyl]amino}methyl)-N-{4-[(3-methoxyazetidin-1-yl)methyl]benzyl}-N-methyl-1,3-oxazole-4-carboxamide]
6 | 0.1 to 1 µM | COc1cc(C)c(S(=O)(=O)N(Cc2nc(C(=O)N3CCN(Cc4ccncc4F)CC3)co2)C2CC2)c(C)c1 [Ex 232, N-Cyclopropyl-N-{[4-({4-[(3-fluoropyridin-4-yl)methyl]piperazin-1-yl}carbonyl)-1,3-oxazol-2-yl]methyl}-4-methoxy-2,6-dimethylbenzenesulfonamide trifluoroacetate]
7 | 0.1 to 1 µM | COc1cc(C)c(S(=O)(=O)N(C)Cc2ccc(C(=O)N3CCN(C4CCN(C)CC4)CC3)o2)c(C)c1 [Ex 62, 4-Methoxy-N,2,6-trimethyl-N-[(5-{[4-(1-methylpiperidin-4-yl)piperazin-1-yl]carbonyl}furan-2-yl)methyl]benzenesulfonamide]
8 | 0.1 to 1 µM | COc1cc(C)c(S(=O)(=O)N(C)Cc2nnc(C(=O)N3CCN(CC4CCN(C5CCC5)CC4)CC3)o2)c(C)c1 [Ex 265, N-{[5-({4-[(1-Cyclobutylpiperidin-4-yl)methyl]piperazin-1-yl}carbonyl)-1,3,4-oxadiazol-2-yl]methyl}-4-methoxy-N,2,6-trimethylbenzenesulfonamide trifluoroacetate]
9 | 0.1 to 1 µM | COc1cc(C)c(S(=O)(=O)N(C)Cc2nc(C(=O)NCc3ccc(C4=NCCN4)cc3)co2)c(C)c1 [Ex 68, N-[4-(4,5-dihydro-1H-imidazol-2-yl)benzyl]-2-({[(4-methoxy-2,6-dimethylphenyl)sulfonyl](methyl)amino}methyl)-1,3-oxazole-4-carboxamide]
10 | < 0.01 µM | COc1cc(C)c(S(=O)(=O)N(Cc2nc(C(=O)NCc3cccc(CN4CCCC4)c3)co2)C2CC2)c(C)c1 [Ex 78, 2-({Cyclopropyl[(4-methoxy-2,6-dimethylphenyl)sulfonyl]amino}methyl)-N-[3-(pyrrolidin-1-ylmethyl)benzyl]-1,3-oxazole-4-carboxamide]
11 | < 0.01 µM | COc1cc(C)c(S(=O)(=O)N(Cc2nc(C(=O)N(C)CCc3ccc(C4=NCCN4)cc3)co2)C2CC2)c(C)c1 [Ex 79, 2-({Cyclopropyl[(4-methoxy-2,6-dimethylphenyl)sulfonyl]amino}methyl)-N-{2-[4-(4,5-dihydro-1H-imidazol-2-yl)phenyl]ethyl}-N-methyl-1,3-oxazole-4-carboxamide]
12 | < 0.01 µM | COc1cc(C)c(S(=O)(=O)N(Cc2noc(C(=O)N3CCN(CCCN4CCCC4)CC3)n2)C2CC2)c(C)c1 [Ex 317, N-Cyclopropyl-4-methoxy-2,6-dimethyl-N-[(5-{[4-(3-pyrrolidin-1-ylpropyl)piperazin-1-yl]carbonyl}-1,2,4-oxadiazol-3-yl)methyl]benzenesulfonamide]
13 | < 0.01 µM | COc1cc(C)c(S(=O)(=O)N(C)Cc2nnc(C(=O)N3CCN(CC4CCN(C)CC4)CC3)o2)c(C)c1 [Ex 258, 4-Methoxy-N,2,6-trimethyl-N-{[5-({4-[(1-methylpiperidin-4-yl)methyl]piperazin-1-yl}carbonyl)-1,3,4-oxadiazol-2-yl]methyl}benzenesulfonamide]
14 | < 0.01 µM | COc1cc(C)c(S(=O)(=O)N(C)Cc2nsc(C(=O)NCCc3ccc(C4=NCCN4)cc3)n2)c(C)c1 [Ex 63, N-{2-[4-(4,5-dihydro-1H-imidazol-2-yl)phenyl]ethyl}-3-({[(4-methoxy-2,6-dimethylphenyl)sulfonyl](methyl)amino}methyl)-1,2,4-thiadiazole-5-carboxamide]
15 | < 0.01 µM | COc1cc(C)c(S(=O)(=O)N(Cc2nc(C(=O)N(C)Cc3ccc(CN4CCCC(OC)C4)cc3)co2)C2CC2)c(C)c1 (stereo not shown) [Ex 184, 2-({Cyclopropyl[(4-methoxy-2,6-dimethylphenyl)sulfonyl]amino}methyl)-N-{4-[(3-methoxypiperidin-1-yl)methyl]benzyl}-N-methyl-1,3-oxazole-4-carboxamide]
16 | < 0.01 µM | CN(Cc1ccc(C2=NCCN2)cc1)C(=O)c1coc(CN(C)S(=O)(=O)c2ccc(Cl)cc2Cl)c1 [Ex 21, 5-({[(2,4-dichlorophenyl)sulfonyl](methyl)amino}methyl)-N-[4-(4,5-dihydro-1H-imidazol-2-yl)benzyl]-N-methylfuran-3-carboxamide]
17 | 0.01 to 0.1 µM | COc1cc(C)c(S(=O)(=O)N(C)Cc2cc(C(=O)N(C)Cc3ccc(CN4CCC(N(C)C)C4)cc3)co2)c(C)c1 (stereo not shown) [Ex 136, N-(4-{[3-(Dimethylamino)pyrrolidin-1-yl]methyl}benzyl)-5-({[(4-methoxy-2,6-dimethylphenyl)sulfonyl](methyl)amino}methyl)-N-methylfuran-3-carboxamide]
18 | 0.01 to 0.1 µM | COc1cc(C)c(S(=O)(=O)N(Cc2nc(C(=O)N3CCC(O)(/C=C/c4cccnc4)CC3)co2)C2CC2)c(C)c1 [Ex 240, N-Cyclopropyl-N-{[4-({4-hydroxy-4-[(E)-2-pyridin-3-ylethenyl]piperidin-1-yl}carbonyl)-1,3-oxazol-2-yl]methyl}-4-methoxy-2,6-dimethylbenzenesulfonamide trifluoroacetate]
19 | < 0.01 µM | COc1cc(C)c(S(=O)(=O)N(C)Cc2nc(C(=O)N(C)Cc3ccc(CN4CCCC4)cc3)co2)c(C)c1 [Ex 71, 2({[(4-Methoxy-2,6dimethylphenyl)sulfonyl](methyl)amino}methyl)-N-methyl-N-[4-(pyrrolidin-1-ylmethyl)benzyl]-1,3-oxazole-4-carboxamide]
20 | 0.01 to 0.1 µM | COc1cc(C)c(S(=O)(=O)N(C)Cc2cc(C(=O)N3CCN(CC4CCCN(C)C4)CC3)co2)c(C)c1 (stereo not shown) [Ex 31, 4-methoxy-N,2,6-trimethyl-N-{[4-({4-[(1-methylpiperidin-3-yl)methyl]piperazin-1-yl}carbonyl)furan-2-yl]methyl}benzenesulfonamide]
21 | < 0.01 µM | COc1cc(C)c(S(=O)(=O)N(Cc2noc(C(=O)N3CCN(C4CCN(C)CC4)CC3)n2)C2CC2)c(C)c1 [Ex 311, N-Cyclopropyl-4-methoxy-2,6-dimethyl-N-[(5-{[4-(1-methylpiperidin-4-yl)piperazin-1-yl]carbonyl}-1,2,4-oxadiazol-3-yl)methyl]benzenesulfonamide]
22 | 0.1 to 1 µM | COc1cc(C)c(S(=O)(=O)N(C)Cc2cc(C(=O)NCCc3ccc(CN4CCCC4)cc3)co2)c(C)c1 [Ex 46, 5-({[(4-methoxy-2,6-dimethylphenyl)sulfonyl](methyl)amino}methyl)-N-{2-[4-(pyrrolidin-1-ylmethyl)phenyl]ethyl}furan-3-carboxamide]
23 | 0.01 to 0.1 µM | COc1cc(C)c(S(=O)(=O)N(Cc2nc(C(=O)N3CCN(Cc4ccc(C(F)(F)F)nc4)CC3)co2)C2CC2)c(C)c1 [Ex 236, N-Cyclopropyl-4-methoxy-2,6-dimethyl-N-({4-[(4-{[6-(trifluoromethyl)pyridin-3-yl]methyl}piperazin-1-yl)carbonyl]-1,3-oxazol-2-yl}methyl)benzenesulfonamide trifluoroacetate]
24 | 0.1 to 1 µM | CCN(Cc1cc(C(=O)NCCc2ccc(C3=NCCN3)cc2)co1)S(=O)(=O)c1c(Cl)cccc1Cl [Ex 122, 5-({[(2,6-Dichlorophenyl)sulfonyl](ethyl)amino}methyl)-N-{2-[4-(4,5-dihydro-1H-imidazol-2-yl)phenyl]ethyl}furan-3-carboxamide trifluoroacetate]
25 | 0.1 to 1 µM | COc1cc(C)c(S(=O)(=O)N(Cc2nc(C(=O)N3CC4CN(Cc5ccc(OC)nc5)CC4C3)co2)C2CC2)c(C)c1 (stereo not shown) [Ex 209, N-Cyclopropyl-4-methoxy-N-{[4-({5-[(6-methoxypyridin-3-yl)methyl]hexahydropyrrolo[3,4-c]pyrrol-2(1H)-yl}carbonyl)-1,3-oxazol-2-yl]methyl}-2,6-dimethylbenzenesulfonamide trifluoroacetate]
